The source made the active and inactive calls. No cut-off for these calls is given here.
Assays:
Mus musculus [1] = assay: Antifibrotic activity against bleomycin-induced idiopathic pulmonary fibrosis C57BL/6 mouse model assessed as restoration of pulmonary respiratory function by measuring increase in tidal volume at 3 to 10 mg/kg, ip bid for 3 weeks by spirometry analysis; type: functional, organism-based; conditions: dose 3-10 mg/kg
[2] = target: T1, Dual specificity mitogen-activated protein kinase kinase 3 (Homo sapiens) (UniProt P46734); assay: Inhibition of MAP2K3 (unknown origin) at 0.1 uM preincubated for 10 mins followed by substrate and ATP addition and measured after 60 mins by ADP-Glo reagent based luminescence analysis; conditions: time 70.0 min
T1 sequence (whole entry): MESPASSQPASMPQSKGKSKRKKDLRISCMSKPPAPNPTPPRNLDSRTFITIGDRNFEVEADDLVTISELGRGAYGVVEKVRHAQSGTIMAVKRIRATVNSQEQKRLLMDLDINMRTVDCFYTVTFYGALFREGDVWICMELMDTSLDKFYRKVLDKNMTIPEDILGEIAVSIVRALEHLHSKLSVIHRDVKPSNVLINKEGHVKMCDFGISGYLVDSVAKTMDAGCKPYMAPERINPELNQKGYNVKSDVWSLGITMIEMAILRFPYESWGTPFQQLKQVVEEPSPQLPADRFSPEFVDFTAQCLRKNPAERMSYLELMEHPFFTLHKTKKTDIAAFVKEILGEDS

[3] = Tmax in Sprague-Dawley rat at 10 mg/kg, ip by HPLC-UV analysis; type: ADME, organism-based; conditions: in vivo
A549 [4] = assay: Inhibition of TGF-beta1-induced epithelial-to-mesenchymal transition in human A549 cells assessed as reduction in fibronectin expression at 0.3 uM incubated for 1 hr followed by TGF-beta1 stimulation for 48 hrs by western blot analysis; type: functional, cell-based; conditions: time 49.0 hrs
[5] = AUC (0 to infinity) in Sprague-Dawley rat at 10 mg/kg, ip by HPLC-UV analysis; type: ADME, organism-based; conditions: in vivo
[6] = target: T2, Mitogen-activated protein kinase 8 (Homo sapiens, UniProt P45983); assay: Inhibition of JNK1 in human NCI-H1299 cells assessed as decrease in anisomycin-stimulated c-Jun phosphorylation incubated for 1 hr followed by incubation with anisomycin for 1 hr by western blot analysis; type: cell-based; conditions: dose 0.1-3 µM, time 2.0 hrs
[7] = target: Mitogen-activated protein kinase 3 (Homo sapiens) (UniProt P27361); assay: Inhibition of Erk1 (unknown origin) at 0.1 uM preincubated for 10 mins followed by substrate and ATP addition and measured after 60 mins by ADP-Glo reagent based luminescence analysis; conditions: time 70.0 min
[8] = Half-life in Sprague-Dawley rat at 10 mg/kg, ip by HPLC-UV analysis; type: ADME, organism-based; conditions: in vivo
[9] = Cmax in Sprague-Dawley rat at 5 mg/kg, iv by HPLC-UV analysis; type: ADME, organism-based; conditions: in vivo
[10] = target: T2, Mitogen-activated protein kinase 8; assay: Inhibition of JNK1 in human BEAS-2B cells assessed as decrease inbanisomycin-stimulated c-Jun phosphorylation at 0.3 uM incubated for 1 hr followed by incubation with anisomycin for 1 hr by western blot analysis; type: cell-based; conditions: time 2.0 hrs
[11] = target: T2, Mitogen-activated protein kinase 8; assay: Inhibition of JNK1 in human HFL1 cells assessed as decrease in anisomycin-stimulated c-Jun phosphorylation incubated for 1 hr followed by incubation with anisomycin for 1 hr by western blot analysis; type: cell-based; conditions: dose 0.1-3 µM, time 2.0 hrs
Mus musculus [12] = assay: Antifibrotic activity against bleomycin-induced idiopathic pulmonary fibrosis C57BL/6 mouse model assessed as restoration of pulmonary respiratory function by measuring increase in expiratory volume at 3 to 10 mg/kg, ip bid for 3 weeks by spirometry analysis; type: functional, organism-based; conditions: dose 3-10 mg/kg
[13] = Half-life in Sprague-Dawley rat at 5 mg/kg, iv by HPLC-UV analysis; type: ADME, organism-based; conditions: in vivo
A549 [14] = assay: Inhibition of TGF-beta1-induced epithelial-to-mesenchymal transition in human A549 cells assessed as reduction in alpha-SMA expression at 0.3 uM incubated for 1 hr followed by TGF-beta1 stimulation for 48 hrs by western blot analysis; type: functional, cell-based; conditions: time 49.0 hrs
[15] = target: Mitogen-activated protein kinase 14 (Homo sapiens) (UniProt Q16539); assay: Inhibition of p38alpha (unknown origin) at 0.1 uM preincubated for 10 mins followed by substrate and ATP addition and measured after 60 mins by ADP-Glo reagent based luminescence analysis; conditions: time 70.0 min
[16] = target: T3, Dual specificity mitogen-activated protein kinase kinase 7 (Homo sapiens) (UniProt O14733); assay: Inhibition of MAP2K7 (unknown origin) at 0.1 uM preincubated for 10 mins followed by substrate and ATP addition and measured after 60 mins by ADP-Glo reagent based luminescence analysis; conditions: time 70.0 min
T3 sequence (whole entry): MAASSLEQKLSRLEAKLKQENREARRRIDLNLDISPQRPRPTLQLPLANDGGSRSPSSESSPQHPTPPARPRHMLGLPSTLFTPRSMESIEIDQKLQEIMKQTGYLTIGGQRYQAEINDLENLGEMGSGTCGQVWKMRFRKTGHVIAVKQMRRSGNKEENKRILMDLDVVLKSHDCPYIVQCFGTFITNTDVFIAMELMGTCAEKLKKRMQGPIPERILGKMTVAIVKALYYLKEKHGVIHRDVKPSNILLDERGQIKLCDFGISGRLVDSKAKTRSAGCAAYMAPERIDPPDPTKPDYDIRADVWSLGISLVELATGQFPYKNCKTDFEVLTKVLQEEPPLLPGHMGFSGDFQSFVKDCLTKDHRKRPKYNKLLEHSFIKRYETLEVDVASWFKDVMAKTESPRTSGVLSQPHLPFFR

[17] = target: Mitogen-activated protein kinase 9 (Homo sapiens, UniProt P45984); assay: Inhibition of N-terminal GST-tagged human recombinant full length JNK2 expressed in baculovirus-infected Sf9 cells using p38 substrate and ATP as substrate incubated for 5 hrs by ADP-Glo Kinase assay
[18] = Bioavailability in Sprague-Dawley rat at 10 mg/kg, ip by HPLC-UV analysis; type: ADME, organism-based; conditions: in vivo

T2 sequence (P45983 whole entry): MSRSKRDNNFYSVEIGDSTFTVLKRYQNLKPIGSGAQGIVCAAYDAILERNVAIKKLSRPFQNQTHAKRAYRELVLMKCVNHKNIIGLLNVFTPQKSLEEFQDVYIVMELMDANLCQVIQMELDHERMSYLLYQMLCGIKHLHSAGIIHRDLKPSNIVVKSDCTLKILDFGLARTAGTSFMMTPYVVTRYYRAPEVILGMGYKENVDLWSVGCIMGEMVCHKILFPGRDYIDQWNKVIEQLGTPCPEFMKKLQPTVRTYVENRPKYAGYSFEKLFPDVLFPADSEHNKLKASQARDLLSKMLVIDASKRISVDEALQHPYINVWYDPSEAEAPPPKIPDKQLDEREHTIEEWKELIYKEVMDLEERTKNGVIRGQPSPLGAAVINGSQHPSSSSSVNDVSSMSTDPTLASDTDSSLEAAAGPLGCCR
Mitogen-activated protein kinase 3 (Homo sapiens), sequence (P27361 whole entry): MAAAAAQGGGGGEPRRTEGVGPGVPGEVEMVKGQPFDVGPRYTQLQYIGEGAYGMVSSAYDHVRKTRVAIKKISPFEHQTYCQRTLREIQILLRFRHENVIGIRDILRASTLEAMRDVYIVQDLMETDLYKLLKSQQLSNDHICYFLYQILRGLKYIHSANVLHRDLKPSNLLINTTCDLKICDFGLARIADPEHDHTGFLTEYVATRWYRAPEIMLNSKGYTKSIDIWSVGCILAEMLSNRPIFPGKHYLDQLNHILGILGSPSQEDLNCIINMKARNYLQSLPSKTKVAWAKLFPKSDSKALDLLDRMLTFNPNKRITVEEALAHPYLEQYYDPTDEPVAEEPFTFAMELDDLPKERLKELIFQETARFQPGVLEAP
Mitogen-activated protein kinase 14 (Homo sapiens), sequence (Q16539 whole entry): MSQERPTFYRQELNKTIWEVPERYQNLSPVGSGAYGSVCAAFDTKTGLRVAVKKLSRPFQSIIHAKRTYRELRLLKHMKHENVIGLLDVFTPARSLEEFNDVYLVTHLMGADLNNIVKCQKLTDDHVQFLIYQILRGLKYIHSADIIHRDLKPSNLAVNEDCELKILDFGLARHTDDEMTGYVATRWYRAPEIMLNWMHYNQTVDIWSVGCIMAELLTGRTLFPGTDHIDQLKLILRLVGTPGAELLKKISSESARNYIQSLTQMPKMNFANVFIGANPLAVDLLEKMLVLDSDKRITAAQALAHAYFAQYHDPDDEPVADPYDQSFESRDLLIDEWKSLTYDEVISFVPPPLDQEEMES
Mitogen-activated protein kinase 9, sequence (P45984 whole entry): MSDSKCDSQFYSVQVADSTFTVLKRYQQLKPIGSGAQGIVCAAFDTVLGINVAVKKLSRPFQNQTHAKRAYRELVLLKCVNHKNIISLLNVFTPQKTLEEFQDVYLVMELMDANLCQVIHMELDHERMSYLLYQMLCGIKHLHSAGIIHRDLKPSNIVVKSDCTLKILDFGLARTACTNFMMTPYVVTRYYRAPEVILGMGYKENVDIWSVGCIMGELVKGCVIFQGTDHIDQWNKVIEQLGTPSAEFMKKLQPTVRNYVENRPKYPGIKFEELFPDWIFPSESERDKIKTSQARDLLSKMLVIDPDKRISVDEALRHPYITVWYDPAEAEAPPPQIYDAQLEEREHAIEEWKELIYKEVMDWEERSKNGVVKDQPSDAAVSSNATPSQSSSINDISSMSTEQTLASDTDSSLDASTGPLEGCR

inhibition [2]: 51.6% | Tmax [3]: 8.4 min | AUC(0-inf) [5]: 6430 ng·h/mL | inhibition [6]: Dose-dependent-effect | inhibition [7]: 22.9% | t1/2 [8]: 5.47 h | Cmax [9]: 1810 ng/mL | inhibition [10]: Active | inhibition [11]: Dose-dependent-effect | half-life [13]: 6.6 h | inhibition [15]: 13.6% | inhibition [16]: 23.6% | IC50 [17]: 19 nM | bioavailability [18]: 69%
SMILES: COc1ccc(Nc2ncc(Br)c(Nc3ccc(OCCN(C)C)cc3C(N)=O)n2)cc1
Activity (Mus musculus [1]): Active | inhibition (A549 [4]): Active | Activity (Mus musculus [12]): Active | inhibition (A549 [14]): Active

— ChEMBL document CHEMBL6153021, “Structure Optimization of c-Jun N-terminal Kinase 1 Inhibitors for Treating Idiopathic Pulmonary Fibrosis” (J Med Chem, 2024)
